Measured values: ChEMBL document CHEMBL4007388, “Synthesis and antiproliferative activity of monocationic arylthiophene derivatives” (Eur J Med Chem, 2017)

What was measured:
[1] = tested on: A498; test: Growth inhibition of human A498 cells incubated for 48 hrs by sulforhodamine B assay; assay type: functional; details: A498, 48 h
[2] = tested on: ACHN; test: Growth inhibition of human ACHN cells incubated for 48 hrs by sulforhodamine B assay; assay type: functional
[3] = tested on: MDA-MB-468; test: Growth inhibition of human MDA-MB-468 cells incubated for 48 hrs by sulforhodamine B assay; assay type: functional; details: MDA-MB-468, 48 h
[4] = tested on: SK-MEL-2; test: Growth inhibition of human SK-MEL-2 cells incubated for 48 hrs by sulforhodamine B assay; assay type: functional; details: SK-MEL-2, 48 h
[5] = tested on: IGROV-1; test: Growth inhibition of human IGROV1 cells incubated for 48 hrs by sulforhodamine B assay; assay type: functional; details: IGROV-1, 48 h
[6] = tested on: NCI/ADR-RES; test: Growth inhibition of human NCI/ADR-RES cells incubated for 48 hrs by sulforhodamine B assay; assay type: functional
[7] = Growth inhibition of human NCI60 cells at 10 uM after 48 hrs by SRB assay relative to control; values are per cent of control; details: NCI60, 48 h
[8] = tested on: PC-3; test: Growth inhibition of human PC3 cells incubated for 48 hrs by sulforhodamine B assay; assay type: functional; details: PC-3, 48 h
[9] = tested on: KM12; test: Growth inhibition of human KM12 cells incubated for 48 hrs by sulforhodamine B assay; assay type: functional; details: KM12, 48 h
[10] = tested on: HCC 2998; test: Growth inhibition of human HCC2998 cells incubated for 48 hrs by sulforhodamine B assay; assay type: functional; details: HCC 2998, 48 h
[11] = tested on: WI-38; test: Cytotoxicity against human WI38 cells assessed as reduction in cell viability after 24 hrs by MTT assay; assay type: cell-based; details: WI-38, 24 h
[12] = tested on: CAKI-1; test: Growth inhibition of human Caki1 cells incubated for 48 hrs by sulforhodamine B assay; assay type: functional; details: CAKI-1, 48 h
[13] = tested on: OVCAR-8; test: Growth inhibition of human OVCAR8 cells incubated for 48 hrs by sulforhodamine B assay; assay type: functional; details: OVCAR-8, 48 h
[14] = tested on: RXF 393; test: Growth inhibition of human RXF393 cells incubated for 48 hrs by sulforhodamine B assay; assay type: functional; details: RXF 393, 48 h
[15] = tested on: HOP-62; test: Growth inhibition of human HOP62 cells incubated for 48 hrs by sulforhodamine B assay; assay type: functional; details: HOP-62, 48 h
[16] = tested on: NCI-H23; test: Growth inhibition of human NCI-H23 cells incubated for 48 hrs by sulforhodamine B assay; assay type: functional; details: NCI-H23, 48 h
[17] = tested on: NCI-H322M; test: Growth inhibition of human NCI-H322M cells incubated for 48 hrs by sulforhodamine B assay; assay type: functional
[18] = tested on: SK-OV-3; test: Growth inhibition of human SKOV3 cells incubated for 48 hrs by sulforhodamine B assay; assay type: functional; details: SK-OV-3, 48 h
[19] = tested on: COLO 205; test: Growth inhibition of human COLO205 cells incubated for 48 hrs by sulforhodamine B assay; assay type: functional; details: COLO 205, 48 h
[20] = tested on: SNB-75; test: Growth inhibition of human SNB75 cells incubated for 48 hrs by sulforhodamine B assay; assay type: functional; details: SNB-75, 48 h
[21] = tested on: NCI-H226; test: Growth inhibition of human NCI-H226 cells incubated for 48 hrs by sulforhodamine B assay; assay type: functional; details: NCI-H226, 48 h
[22] = tested on: HCT-15; test: Growth inhibition of human HCT15 cells incubated for 48 hrs by sulforhodamine B assay; assay type: functional; details: HCT-15, 48 h
[23] = tested on: MDA-MB-435; test: Growth inhibition of human MDA-MB-435 cells incubated for 48 hrs by sulforhodamine B assay; assay type: functional; details: MDA-MB-435, 48 h
[24] = tested on: WISH; test: Cytotoxicity against human WISH cells assessed as reduction in cell viability after 24 hrs by MTT assay; assay type: cell-based
[25] = tested on: CCRF-CEM; test: Growth inhibition of human CCRF-CEM cells incubated for 48 hrs by sulforhodamine B assay; assay type: functional
[26] = tested on: M14; test: Growth inhibition of human M14 cells incubated for 48 hrs by sulforhodamine B assay; assay type: functional; details: M14, 48 h
[27] = tested on: LOX IMVI; test: Growth inhibition of human LOXIMVI cells incubated for 48 hrs by sulforhodamine B assay; assay type: functional
[28] = tested on: K562; test: Growth inhibition of human K562 cells incubated for 48 hrs by sulforhodamine B assay; assay type: functional; details: K562, 48 h
[29] = tested on: MCF7; test: Growth inhibition of human MCF7 cells incubated for 48 hrs by sulforhodamine B assay; assay type: functional; details: MCF7, 48 h
[30] = tested on: TK-10; test: Growth inhibition of human TK10 cells incubated for 48 hrs by sulforhodamine B assay; assay type: functional; details: TK-10, 48 h
[31] = tested on: 786-0; test: Growth inhibition of human 786-O cells incubated for 48 hrs by sulforhodamine B assay; assay type: functional; details: 786-0, 48 h
[32] = tested on: SR; test: Growth inhibition of human SR cells incubated for 48 hrs by sulforhodamine B assay; assay type: functional
[33] = tested on: RPMI-8226; test: Growth inhibition of human RPMI8226 cells incubated for 48 hrs by sulforhodamine B assay; assay type: functional; details: RPMI-8226, 48 h
[34] = tested on: SNB-19; test: Growth inhibition of human SNB19 cells incubated for 48 hrs by sulforhodamine B assay; assay type: functional; details: SNB-19, 48 h
[35] = tested on: SW-620; test: Growth inhibition of human SW620 cells incubated for 48 hrs by sulforhodamine B assay; assay type: functional; details: SW-620, 48 h
[36] = tested on: DU-145; test: Growth inhibition of human DU145 cells incubated for 48 hrs by sulforhodamine B assay; assay type: functional; details: DU-145, 48 h
[37] = species on record: Homo sapiens; test: Inhibition of PTK in human MCF7 cells at 1 uM preincubated for 2 hrs followed by poly-Glu-Tyr substrate addition by ELISA relative to control; assay type: cell-based
[38] = tested on: SN12C; test: Growth inhibition of human SN12C cells incubated for 48 hrs by sulforhodamine B assay; assay type: functional
[39] = Antioxidant activity assessed as superoxide dismutase-like activity by measuring inhibition of superoxide radical anion production at 2 uM by NBT reduction assay relative to control; assay type: functional
[40] = tested on: NCI-H522; test: Growth inhibition of human NCI-H522 cells incubated for 48 hrs by sulforhodamine B assay; assay type: functional; details: NCI-H522, 48 h
[41] = tested on: HL-60(TB); test: Growth inhibition of human HL-60(TB) cells incubated for 48 hrs by sulforhodamine B assay; assay type: functional; details: HL-60, 48 h
[42] = tested on: BT-549; test: Growth inhibition of human BT549 cells incubated for 48 hrs by sulforhodamine B assay; assay type: functional; details: BT-549, 48 h
[43] = tested on: MOLT-4; test: Growth inhibition of human MOLT4 cells incubated for 48 hrs by sulforhodamine B assay; assay type: functional; details: MOLT-4, 48 h
[44] = tested on: HT-29; test: Growth inhibition of human HT-29 cells incubated for 48 hrs by sulforhodamine B assay; assay type: functional; details: HT-29, 48 h
[45] = tested on: HCT-116; test: Growth inhibition of human HCT116 cells incubated for 48 hrs by sulforhodamine B assay; assay type: functional; details: HCT-116, 48 h
[46] = tested on: HOP-92; test: Growth inhibition of human HOP92 cells incubated for 48 hrs by sulforhodamine B assay; assay type: functional; details: HOP-92, 48 h
[47] = tested on: UACC-257; test: Growth inhibition of human UACC257 cells incubated for 48 hrs by sulforhodamine B assay; assay type: functional; details: UACC-257, 48 h

In the case of COc1cc(OC)cc(-c2ccc(-c3ccc(C(=N)N)c(F)c3)s2)c1, the GI50 [1] is reported as 1330 nM, the GI50 [2] is reported as 181 nM and the GI50 [3] is reported as 182 nM. For the same compound, the GI50 [4] was 1860 nM, the GI50 [5] was 484 nM and the GI50 [6] was 1590 nM. For the same compound, the growth percent at 10 µM [7] was -77.8%, the GI50 [8] was 1300 nM and the GI50 [9] was 352 nM. The GI50 [10] was 207 nM, the IC50 [11] was 123 µM and the GI50 [12] was 233 nM. The GI50 [13] was 1200 nM, the GI50 [14] was 449 nM and the GI50 [15] was 1610 nM. It also gave a GI50 [16] of 1430 nM, a GI50 [17] of 502 nM and a GI50 [18] of 1640 nM. For the same compound, the GI50 [19] was 208 nM, the GI50 [20] was 1300 nM and the GI50 [21] was 1730 nM. For the same compound, the GI50 [22] was 196 nM, the GI50 [23] was 194 nM and the IC50 [24] was 115 µM. The GI50 [25] was 306 nM, the GI50 [26] was 184 nM and the GI50 [27] was 196 nM. For the same compound, the GI50 [28] was 262 nM, the GI50 [29] was 194 nM and the GI50 [30] was 1780 nM. For the same compound, the GI50 [31] was 174 nM, the GI50 [32] was 224 nM and the GI50 [33] was 246 nM. It also gave a GI50 [34] of 1030 nM, a GI50 [35] of 212 nM and a GI50 [36] of 426 nM. The inhibition [37] was 74%, the GI50 [38] was 712 nM and the inhibition [39] was 55.5%. For the same compound, the GI50 [40] was 1200 nM, the GI50 [41] was 229 nM and the GI50 [42] was 1370 nM. It also gave a GI50 [43] of 326 nM, a GI50 [44] of 267 nM and a GI50 [45] of 173 nM. It also gave a GI50 [46] of 665 nM and a GI50 [47] of 1850 nM.
N=C(N)c1ccc(-c2ccc(-c3ccc(Cl)cc3)s2)cc1F showed a GI50 [1] of 1380 nM, a GI50 [2] of 203 nM and a GI50 [3] of 215 nM. The GI50 [4] was 1500 nM, the GI50 [5] was 611 nM and the GI50 [6] was 361 nM. It also gave a growth percent at 10 µM [7] of -67.3%, a GI50 [8] of 394 nM and a GI50 [9] of 226 nM. It also gave a GI50 [10] of 156 nM, an IC50 [11] of 53.1 µM and a GI50 [12] of 173 nM. For the same compound, the GI50 [13] was 983 nM, the GI50 [14] was 187 nM and the GI50 [15] was 1480 nM. For the same compound, the GI50 [16] was 1150 nM, the GI50 [17] was 386 nM and the GI50 [18] was 1140 nM. The GI50 [19] was 200 nM, the GI50 [20] was 165 nM and the GI50 [21] was 2030 nM. The GI50 [22] was 172 nM, the GI50 [23] was 163 nM and the IC50 [24] was 64.2 µM. For the same compound, the GI50 [25] was 194 nM, the GI50 [26] was 179 nM and the GI50 [27] was 205 nM. For the same compound, the GI50 [28] was 272 nM, the GI50 [29] was 168 nM and the GI50 [30] was 1740 nM. The GI50 [31] was 192 nM, the GI50 [32] was 218 nM and the GI50 [33] was 248 nM. For the same compound, the GI50 [34] was 341 nM, the GI50 [35] was 186 nM and the GI50 [36] was 430 nM. It also gave an inhibition [37] of 88%, a GI50 [38] of 517 nM and an inhibition [39] of 59%. It also gave a GI50 [40] of 194 nM, a GI50 [41] of 212 nM and a GI50 [42] of 1500 nM. For the same compound, the GI50 [43] was 243 nM, the GI50 [44] was 203 nM and the GI50 [45] was 171 nM. For the same compound, the GI50 [46] was 589 nM and the GI50 [47] was 1620 nM.
